Literature values in patent US20190343122A1, “IMPROVED INSECT CONTROL STRATEGIES UTILIZING PHEROMONES AND RNAI” (Provivi, Inc., priority 2016, published 2019).

Tests used:
[1] = tested on: mated H. armigera
[2] = tested on: target genes of pests; settings: Noctuidae Spodoptera exigua
[3] = tested on: aphids; settings: in vivo
[4] = tested on: E. heros; settings: female E. heros

Q: Which “attractiveness of an oviposition substrate” value [1] does the source give for `O=Cc1ccccc1` [benzaldehyde] here?
A: significantly increase the attractiveness

Q: Which Larval mortality [2] does the source give for PGCP here?
A: Larval mortality increased

Q: For `CNC(=O)Oc1cccc2ccccc12` [Sevin, carbaryl], which effectiveness against aphids [3] is on record?
A: not effective against many aphids

Q: With `CCCCCCC=O` [Heptanal] as the molecule, how does the “attractiveness of an oviposition substrate” value [1] read?
A: significantly increase the attractiveness

Q: For `CCCC(C)CCCC(C)CCCC(C)C(=O)OC` (centres unmarked) [TMTD, methyl 2,6,10-trimethyltridecanoate], which attraction to lures [4] is on record?
A: attracted
